pIC50: −log10 of the molar value.

For orientation: pIC50 means the negative decadic logarithm of the IC50, by convention in mol/L.

This test deals with T1, human FSH receptor (Homo sapiens, UniProt P23945).
T1 construct: expressed in transfected cells; host or cells: CHO (Chinese Hamster Ovary) cells, stably transfected; cotransfected with a CRE-luciferase reporter
T1 sequence (P23945 18-695): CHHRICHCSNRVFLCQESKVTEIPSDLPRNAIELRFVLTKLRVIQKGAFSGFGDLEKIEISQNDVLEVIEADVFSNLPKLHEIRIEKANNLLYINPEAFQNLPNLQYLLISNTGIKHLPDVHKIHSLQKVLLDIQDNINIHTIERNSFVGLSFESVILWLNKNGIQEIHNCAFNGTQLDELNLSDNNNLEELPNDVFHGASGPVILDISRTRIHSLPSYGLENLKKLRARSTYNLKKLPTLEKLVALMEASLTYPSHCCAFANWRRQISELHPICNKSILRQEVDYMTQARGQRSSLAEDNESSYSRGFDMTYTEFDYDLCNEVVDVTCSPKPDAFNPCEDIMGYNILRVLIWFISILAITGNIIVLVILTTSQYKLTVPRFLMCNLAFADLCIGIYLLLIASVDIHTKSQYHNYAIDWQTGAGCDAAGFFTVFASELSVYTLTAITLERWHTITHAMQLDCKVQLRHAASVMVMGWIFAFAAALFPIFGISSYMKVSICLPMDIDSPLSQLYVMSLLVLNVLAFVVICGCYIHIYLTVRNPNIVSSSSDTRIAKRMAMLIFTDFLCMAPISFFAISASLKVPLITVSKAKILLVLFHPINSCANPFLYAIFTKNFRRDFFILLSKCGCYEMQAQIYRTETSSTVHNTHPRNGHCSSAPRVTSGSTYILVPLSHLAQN
Kind of test: Antagonistic activity at the human FSH receptor expressed in CHO cells (CRE-luciferase reporter). The test is classed as cell-based. Conditions: CHO cells stably transfected with human FSH receptor and CRE-luciferase; with 49 μM recFSH; 4 hours incubation; read-out: IC50 (inhibition of recFSH-induced luciferase stimulation). As to the method:
Antagonistic Activity of Compounds at the Human FSH Receptor Expressed in CHO Cells
Antagonistic activity of the compounds at the human FSH receptor was determined in Chinese Hamster Ovary (CHO) cells stably transfected with the human FSH receptor and cotransfected to with a cAMP responsive element (CRE)/promoter directing the expression of a firefly luciferase reporter gene. Binding of the compounds to the Gs protein-coupled FSH receptor will result in an increase of cAMP, which in turn will induce an increased transactivation of the luciferase reporter. The cells (7,500 cells/well of a 384 well plate) were incubated in Dulbecco′ minimal essential F12 modified medium (Invitrogen), supplemented with 1 μg/ml bovine insulin, 5 μg/ml human apo-transferrin, 100 U/ml penicillin G and 100 μg/ml streptomycin with the test compounds (concentration between 0.316 nM and 10.0 μM) in duplicate together with […] recFSH (which, at this concentration in the absence of test compound, induces 80% of the maximal luciferase stimulation) in a humidified atmosphere (95%) at 5-7% CO2 and 37° C. The final concentration of DMSO was 1%. After 4 hours of incubation, plates were allowed to adjust to room temperature for 1 hour. Then, SteadyLite (PerkinElmer) solution was added to the wells and cells were allowed to lyse for at least 1 hour at room temperature. Subsequently, luciferase activity was measured in a luminescence counter. The signal is expressed as counts per second (cps). The IC50 (concentration of test compound causing half-maximal (50%) inhibition of the maximally attainable inhibition of the luciferase stimulation by the compound) and efficacy of the compounds were determined using the software program MathIQ (version 2.3, ID Business Solutions Limited).
On the technique in general: In a reporter assay the amount or activity of a reporter protein is the signal.
For the compound `COc1cc2c(cc1OCCN(C)C)COc1cc(-c3ccccc3F)c(C(=O)N[C@@H](CO)Cc3c[nH]c4ccccc34)cc1-2` [Example 48, 8-(2-(dimethylamino)ethoxy)-3-(2-fluorophenyl)-N—((R)-1-hydroxy-3-(1H-indol-3-yl)propan-2-yl)-9-methoxy-6H-benzo[c]chromene-2-carboxamide], the pIC50 was above 7.00.

For the compound `COc1cc2c(cc1OCC1CC1)COc1cc(-c3ccccc3F)c(C(=O)N[C@@H](CO)Cc3c[nH]c4ccccc34)cc1-2` [Example 49, 8-(cyclopropylmethoxy)-3-(2-fluorophenyl)-N—((R)-1-hydroxy-3-(1H-indol-3-yl)propan-2-yl)-9-s methoxy-6H-benzo[c]chromene-2-carboxamide], the pIC50 was above 7.00.

In the case of `COc1cc2c(cc1-c1cccnc1)COc1cc(-c3ccccc3F)c(C(=O)N[C@@H](CO)Cc3c[nH]c4ccccc34)cc1-2` [Example 50, 3-(2-fluorophenyl)-N—((R)-1-hydroxy-3-(1H-indol-3-yl)propan-2-yl)-9-methoxy-8-(pyridin-3-v)-6H-benzo[c]chromene-2-carboxamide], the pIC50 was above 7.00.

`COc1cc2c(cc1-c1cnn(C)c1)COc1cc(-c3ccccc3F)c(C(=O)N[C@@H](CO)Cc3c[nH]c4ccccc34)cc1-2` [Example 51, 3-(2-fluorophenyl)-N—((R)-1-hydroxy-3-(1H-indol-3-yl)propan-2-yl)-9-methoxy-8-(1-methyl-1H-pyrazol-4-yl)-6H-benzo[c]chromene-2-carboxamide]: the negative logarithm of the IC50 (pIC50) is above 7.00.

`COc1cc2c(cc1-c1ccncc1)COc1cc(-c3ccccc3F)c(C(=O)N[C@@H](CO)Cc3c[nH]c4ccccc34)cc1-2` [Example 52, 3-(2-fluorophenyl)-N—((R)-1-hydroxy-3-(1H-indol-3-yl)propan-2-yl)-9-methoxy-8-(pyridin-4)-6H-benzo[c]chromene-2-carboxamide]: the pIC50 was above 7.00.

Consider `O=C(N[C@@H](CO)Cc1c[nH]c2ccccc12)c1cc2c(cc1-c1ccccc1F)OCc1cc(C(=O)N3CCOCC3)ccc1-2` [Example 53, 3-(2-fluorophenyl)-N—((R)-1-hydroxy-3-(1H-indol-3-yl)propan-2-yl)-8-(morpholine-4-carbonyl)-6H-benzo[c]chromene-2-carboxamide], for which the pIC50 was above 7.00.

On to `CN(C)C(=O)c1ccc2c(c1)COc1cc(-c3ccccc3F)c(C(=O)N[C@@H](CO)Cc3c[nH]c4ccccc34)cc1-2` [Example 54, 3-(2-fluorophenyl)-N2-((R)-1-hydroxy-3-(1H-indol-3-yl)propan-2-yl)-N8,N8-dimethyl-6H-benzo[c]chromene-2,8-dicarboxamide], for which the pIC50 is above 7.00.

Regarding `O=C(N[C@@H](CO)Cc1c[nH]c2ccccc12)c1cc2c(cc1-c1ccccc1F)OCc1cc3c(cc1-2)OCO3` [Example 55, 3-(2-fluorophenyl)-N—((R)-1-hydroxy-3-(1H-indol-3-yl)propan-2-yl)-8,9-(1′,3′-dioxolo)-6H-benzo[c]chromene-2-carboxamide], the pIC50 was above 7.00.

With `Cc1ccsc1-c1cc2c(cc1C(=O)N[C@@H](CO)Cc1c[nH]c3ccccc13)-c1cc3c(cc1CO2)OCO3` [Example 56, N—((R)-1-hydroxy-3-(1H-indol-3-yl)propan-2-yl)-8,9-(1′,3′-dioxolo)-3-(3-methylthiophen-2-yl)-6H-benzo[c]chromene-2-carboxamide], the pIC50 is above 7.00.

`CC(C)Oc1cc2oc(=O)c3cc4c(cc3c2cc1C(=O)N[C@@H](CO)Cc1c[nH]c2ccccc12)OCO4` [Example 57, N—((R)-1-hydroxy-3-(1H-indol-3-yl)propan-2-v)-8,9-(1′,3′-dioxolo)-3-(3-isopropoxy)-6-oxo-6H-benzo[c]chromene-2-carboxamide]: the pIC50 is 6.00 to 7.00.

Regarding `COc1cc2c(cc1OC)-c1cc(C(=O)N[C@@H](CO)Cc3c[nH]c4ccccc34)c(OC(C)C)cc1CC2` [Example 58, (R)-2-isopropoxy-N-(1-hydroxy-3-(1H-indol-3-yl)propan-2-yl)-6,7-dimethoxy-9,10-dihydrophenanthrene-3-carboxamide], the pIC50 is above 7.00.

Values taken from patent US9044463B2, “FSH receptor antagonists” (Merck Sharp & Dohme B.V., priority 2011, dated 2015).
